From ChEMBL document CHEMBL5209574, “Fluo-8 based assay for SLC24A4 using HEK293 JumpIn SLC24A4 OE cells” (2022)

Biological target: T1, Sodium/potassium/calcium exchanger 4 (Homo sapiens, UniProt Q8NFF2)
T1 sequence (Q8NFF2 whole entry): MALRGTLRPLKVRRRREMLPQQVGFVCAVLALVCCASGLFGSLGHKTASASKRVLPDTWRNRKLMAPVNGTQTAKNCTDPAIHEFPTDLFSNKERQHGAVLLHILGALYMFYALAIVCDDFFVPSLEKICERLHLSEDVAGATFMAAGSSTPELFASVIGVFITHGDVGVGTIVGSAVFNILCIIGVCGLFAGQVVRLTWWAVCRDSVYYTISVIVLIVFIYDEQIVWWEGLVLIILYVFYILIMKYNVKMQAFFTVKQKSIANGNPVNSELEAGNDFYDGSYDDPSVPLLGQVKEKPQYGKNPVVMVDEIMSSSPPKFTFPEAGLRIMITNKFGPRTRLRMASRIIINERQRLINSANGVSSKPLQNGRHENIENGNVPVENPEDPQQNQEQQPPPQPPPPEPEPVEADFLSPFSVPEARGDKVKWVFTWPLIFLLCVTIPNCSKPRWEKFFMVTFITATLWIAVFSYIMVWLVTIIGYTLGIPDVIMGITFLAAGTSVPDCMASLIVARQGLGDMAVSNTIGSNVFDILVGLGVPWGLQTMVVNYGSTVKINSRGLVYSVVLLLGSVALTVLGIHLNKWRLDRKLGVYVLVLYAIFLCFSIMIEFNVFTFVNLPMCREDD
Experiment: Substrate uptake by the Sodium/Potassium/Calcium Exchanger 4 (NCKX4, SLC24A4) as assessed by Screen Questtrade mark Fluo-8 NW calcium assay kit in HEK-293 JumpIN-SLC24A4 cells (PubChem AID: 1794814)
Type: functional, cell-based, HEK293

EC50: 174 mM
Structure (SMILES): [Cl-].[K+] [POTASSIUM CHLORIDE]
